Key:
c-kit mutant D816V = biological target: T1, c-kit mutant D816V (Homo sapiens, UniProt P10721, D816V/DEL694-753); assay: c-Kit mutant D816V biochemical assay, AlphaScreen; conditions: c-kit D816V biochemical inhibitory activity; read-out: Biochemical activity (IC50 μM) Kit D816V
T1 construct: residues 551-934, kinase insertion domain residues 694-753 deleted; 6x-histidine (N); made in house; host or cells: E. coli Arctic Express (DE3) RIL (Stratagene)
Outline: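 Purified His-tagged c-Kit D816V (E. coli-expressed) assayed in 25 mM HEPES pH 7.2 with Mg/Mn, 5% DMSO and 10 μM ATP, 30 min at room temperature, 8-point 1:3 dilutions. Phosphorylation detected by AlphaScreen with streptavidin donor and PY20 acceptor beads; IC50 from signal versus concentration.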

c-kit kinase = biological target: T2, c-kit kinase (Homo sapiens, UniProt P10721); assay: c-Kit biochemical assay, AlphaScreen, 10 μM ATP; conditions: c-kit biochemical inhibitory activity; read-out: Biochemical activity (IC50 μM) Kit
T2 construct: The c-kit (or kinase domain thereof) is an active kinase in AlphaScreen; poly-Histidine tag (in-house protein only) (cleaved yes); host or cells: E. coli BL21(DE3)RIL, co-expressed with PTP1B
Outline: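 His-tagged c-Kit expressed in E. coli with co-expressed PTP1B (dephosphorylated), tag removed; 0.1 ng per reaction with biotinylated-peptide substrate in 50 mM HEPES pH 7.2, 5 mM MgCl2, 5 mM MnCl2, 5% DMSO, 10 μM ATP, 1 h at room temperature. Phosphorylation detected by AlphaScreen (streptavidin donor, PY20 acceptor beads); IC50 from 8-point 1:3 dilution series.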

T1 sequence (P10721 with tags, fused parts or gaps DEL694-753/D816V): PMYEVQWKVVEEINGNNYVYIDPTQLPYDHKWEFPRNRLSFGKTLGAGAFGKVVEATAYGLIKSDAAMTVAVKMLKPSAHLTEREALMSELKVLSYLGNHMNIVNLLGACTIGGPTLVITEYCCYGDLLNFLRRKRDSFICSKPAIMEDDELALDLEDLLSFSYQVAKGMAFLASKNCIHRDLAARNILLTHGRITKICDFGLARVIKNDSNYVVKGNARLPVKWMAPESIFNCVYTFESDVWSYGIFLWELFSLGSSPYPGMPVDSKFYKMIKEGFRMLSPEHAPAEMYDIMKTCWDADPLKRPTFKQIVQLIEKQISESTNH
T2 sequence (P10721 26-976): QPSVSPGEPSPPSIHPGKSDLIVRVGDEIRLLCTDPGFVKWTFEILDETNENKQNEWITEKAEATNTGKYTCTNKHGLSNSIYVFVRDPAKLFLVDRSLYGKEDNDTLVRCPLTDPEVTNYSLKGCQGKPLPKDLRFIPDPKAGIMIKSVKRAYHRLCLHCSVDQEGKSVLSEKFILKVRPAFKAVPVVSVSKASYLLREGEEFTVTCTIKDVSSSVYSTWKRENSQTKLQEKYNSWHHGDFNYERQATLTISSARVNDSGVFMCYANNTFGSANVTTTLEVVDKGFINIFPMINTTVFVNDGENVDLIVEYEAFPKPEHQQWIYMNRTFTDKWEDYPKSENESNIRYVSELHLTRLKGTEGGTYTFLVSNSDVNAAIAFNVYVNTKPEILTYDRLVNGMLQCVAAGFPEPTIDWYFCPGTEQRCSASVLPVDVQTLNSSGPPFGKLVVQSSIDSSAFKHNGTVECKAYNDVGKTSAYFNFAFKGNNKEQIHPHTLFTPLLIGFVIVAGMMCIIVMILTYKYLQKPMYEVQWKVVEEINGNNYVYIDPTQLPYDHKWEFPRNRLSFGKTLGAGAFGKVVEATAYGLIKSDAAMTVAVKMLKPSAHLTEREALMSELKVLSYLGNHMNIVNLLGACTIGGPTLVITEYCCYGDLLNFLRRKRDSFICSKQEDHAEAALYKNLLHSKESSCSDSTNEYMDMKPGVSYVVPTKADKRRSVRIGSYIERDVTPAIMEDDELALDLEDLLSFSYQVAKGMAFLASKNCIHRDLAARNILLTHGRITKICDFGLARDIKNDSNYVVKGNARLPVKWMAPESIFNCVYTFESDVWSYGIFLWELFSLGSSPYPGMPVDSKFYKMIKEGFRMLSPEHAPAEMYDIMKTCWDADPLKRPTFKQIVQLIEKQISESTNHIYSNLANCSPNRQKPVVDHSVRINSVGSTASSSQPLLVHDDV

Compound	IC50 (c-kit mutant D816V) [µM]	IC50 (c-kit kinase) [µM]
COc1ccc(S(=O)(=O)Nc2ccc(-c3ncnc4cc(OCCCN5CCCCC5)c(OC)cc34)c(F)c2)cc1 [P-0255, N-[3-fluoro-4-[6-methoxy-7-[3-(1-piperidyl)propoxy]quinazolin-4-yl]phenyl]-4-methoxy-benzenesulfonamide]	0.0001 to 1	0.0001 to 1
COc1ccc(S(=O)(=O)N2CCN(c3ncnc4[nH]ccc34)CC2)cc1 [P-0217, 4-[4-(4-methoxyphenyl)sulfonylpiperazin-1-yl]-7H-pyrrolo[2,3-d]pyrimidine]	10 to 200	1 to 10
Cc1cc2c(-c3ccc(NS(=O)(=O)c4cc(F)cc(F)c4)cc3F)ncnc2[nH]1 [P-0342, 3,5-difluoro-N-[3-fluoro-4-(6-methyl-7H-pyrrolo[2,3-d]pyrimidin-4-yl)phenyl]benzenesulfonamide]	10 to 200	10 to 200
CC1CN(c2ncnc3[nH]c(-c4ccncc4)cc23)CCN1C(=O)Nc1ccccc1 (stereo not drawn) [P-0068, 2-methyl-N-phenyl-4-[6-(4-pyridyl)-7H-pyrrolo[2,3-d]pyrimidin-4-yl]piperazine-1-carboxamide]	1 to 10	1 to 10
C[C@H](NC(=O)N1CCN(c2ncnc3cc(-c4ccc(F)cc4)sc23)C[C@H]1C)c1cccc(OC(F)F)c1 [P-0586, (2R)-N-[(1S)-1-[3-(difluoromethoxy)phenyl]ethyl]-4-[6-(4-fluorophenyl)thieno[3,2-d]pyrimidin-4-yl]-2-methyl-piperazine-1-carboxamide]	0.0001 to 1	1 to 10
COCCOc1cc2ncnc(-c3ccc(NS(C)(=O)=O)cc3F)c2cc1OCCOC [P-0264, N-[4-[6,7-bis(2-methoxyethoxy)quinazolin-4-yl]-3-fluoro-phenyl]methanesulfonamide]	0.0001 to 1	10 to 200
Cc1nc(-c2cccc(NC(=O)N3CCN(c4ncnc5[nH]ccc45)CC3)c2)no1 [P-0151, N-[3-(5-methyl-1,2,4-oxadiazol-3-yl)phenyl]-4-(7H-pyrrolo[2,3-d]pyrimidin-4-yl)piperazine-1-carboxamide]	10 to 200	10 to 200
N#Cc1cccc(-c2cc3c(N4CCN(C(=O)Nc5ccc(OC(F)(F)F)cc5)CC4)ncnc3[nH]2)c1 [P-0121, 4-[6-(3-cyanophenyl)-7H-pyrrolo[2,3-d]pyrimidin-4-yl]-N-[4-(trifluoromethoxy)phenyl]piperazine-1-carboxamide]	10 to 200	10 to 200
O=C(NCc1ccc(F)cc1)N1CCN(c2ncnc3[nH]c(-c4ccccc4)cc23)CC1 [P-0242, N-[(4-fluorophenyl)methyl]-4-(6-phenyl-7H-pyrrolo[2,3-d]pyrimidin-4-yl)piperazine-1-carboxamide]	1 to 10	0.0001 to 1
C[C@@H]1CN(c2ncnc3[nH]c(-c4ccncc4)cc23)CCN1 [P-0074, 4-[(3R)-3-methylpiperazin-1-yl]-6-(4-pyridyl)-7H-pyrrolo[2,3-d]pyrimidine]	10 to 200	10 to 200
O=C(NCc1ccc(F)cc1)N1CCN(c2ncnc3[nH]cc(-c4ccccc4)c23)CC1 [P-0226, N-[(4-fluorophenyl)methyl]-4-(5-phenyl-7H-pyrrolo[2,3-d]pyrimidin-4-yl)piperazine-1-carboxamide]	10 to 200	1 to 10
O=S(=O)(Nc1ccc(F)cc1)c1ccc(-c2ncnc3[nH]c(-c4ccc(F)cc4)cc23)c(F)c1 [P-0328, 3-fluoro-N-(4-fluorophenyl)-4-[6-(4-fluorophenyl)-7H-pyrrolo[2,3-d]pyrimidin-4-yl]benzenesulfonamide]	0.0001 to 1	10 to 200
Cc1nn(C)cc1-c1cc2c(N3CCN(C(=O)N[C@@H](C)c4ccc(Cl)cc4)CC3)ncnc2[nH]1 [P-0716, N-[(1S)-1-(4-chlorophenyl)ethyl]-4-[6-(1,3-dimethylpyrazol-4-yl)-7H-pyrrolo[2,3-d]pyrimidin-4-yl]piperazine-1-carboxamide]	0.0001 to 1	10 to 200
C[C@H](NC(=O)N1CCN(c2ncnc3cc(-c4ccc(F)cc4)sc23)C[C@H]1C)c1cccc(F)c1 [P-0585, (2R)-N-[(1S)-1-(3-fluorophenyl)ethyl]-4-[6-(4-fluorophenyl)thieno[3,2-d]pyrimidin-4-yl]-2-methyl-piperazine-1-carboxamide]	1 to 10	1 to 10
Cc1n[nH]c2ncnc(-c3ccc(NS(=O)(=O)c4ccc(F)cc4)cc3)c12 [P-0439, 4-fluoro-N-[4-(3-methyl-1H-pyrazolo[3,4-d]pyrimidin-4-yl)phenyl]benzenesulfonamide]	0.0001 to 1	1 to 10
Cc1csc(S(=O)(=O)Nc2ccc(-c3ncnc4[nH]c(C)cc34)cc2)c1 [P-0305, 4-methyl-N-[4-(6-methyl-7H-pyrrolo[2,3-d]pyrimidin-4-yl)phenyl]thiophene-2-sulfonamide]	1 to 10	0.0001 to 1
Cc1nn(C)cc1-c1cc2c(N3CCC(NS(=O)(=O)c4ccc(Cl)cc4)CC3)ncnc2[nH]1 [P-0667, 4-chloro-N-[1-[6-(1,3-dimethylpyrazol-4-yl)-7H-pyrrolo[2,3-d]pyrimidin-4-yl]-4-piperidyl]benzenesulfonamide]	0.0001 to 1	0.0001 to 1
COc1cccc([C@H](C)NC(=O)N2CCN(c3ncnc4[nH]c(-c5ccc(C#N)cc5)cc34)CC2(C)C)c1 [P-0687, 4-[6-(4-cyanophenyl)-7H-pyrrolo[2,3-d]pyrimidin-4-yl]-N-[(1S)-1-(3-methoxyphenyl)ethyl]-2,2-dimethyl-piperazine-1-carboxamide]	1 to 10	10 to 200
Cc1cc2c(-c3ccc(NS(=O)(=O)c4cccc(OC(F)(F)F)c4)cc3)ncnc2[nH]1 [P-0284, N-[4-(6-methyl-7H-pyrrolo[2,3-d]pyrimidin-4-yl)phenyl]-3-(trifluoromethoxy)benzenesulfonamide]	1 to 10	10 to 200
Cc1ccc(-c2cc3c(N4CCN(C(=O)NCc5ccc(F)cc5)CC4)ncnc3[nH]2)cn1 [P-0103, N-[(4-fluorophenyl)methyl]-4-[6-(6-methyl-3-pyridyl)-7H-pyrrolo[2,3-d]pyrimidin-4-yl]piperazine-1-carboxamide]	0.0001 to 1	1 to 10
COc1ncc(-c2cc3c(N4CCC(NS(=O)(=O)c5ccc(OC(F)(F)F)cc5)CC4)ncnc3[nH]2)cn1 [P-0465, N-[1-[6-(2-methoxypyrimidin-5-yl)-7H-pyrrolo[2,3-d]pyrimidin-4-yl]-4-piperidyl]-4-(trifluoromethoxy)benzenesulfonamide]	10 to 200	10 to 200
O=S(=O)(NC1CCN(c2ncnc3[nH]ccc23)CC1)c1cc(F)ccc1F [P-0539, 2,5-difluoro-N-[1-(7H-pyrrolo[2,3-d]pyrimidin-4-yl)-4-piperidyl]benzenesulfonamide]	10 to 200	10 to 200
COc1cccc([C@H](C)NC(=O)N2CCN(c3ncnc4[nH]c(-c5ccc(Cl)cc5)cc34)C[C@H]2C)c1 [P-0024, (2R)-4-[6-(4-chlorophenyl)-7H-pyrrolo[2,3-d]pyrimidin-4-yl]-N-[(1S)-1-(3-methoxyphenyl)ethyl]-2-methyl-piperazine-1-carboxamide]	0.0001 to 1	1 to 10
Cn1cc(-c2cc3c(N4CCC(NS(=O)(=O)c5cc6ccccc6s5)CC4)ncnc3[nH]2)cn1 [P-0470, N-[1-[6-(1-methylpyrazol-4-yl)-7H-pyrrolo[2,3-d]pyrimidin-4-yl]-4-piperidyl]benzothiophene-2-sulfonamide]	0.0001 to 1	0.0001 to 1

— US10227357B2, “Compounds and methods for kinase modulation, and indications therefor” (Plexxikon Inc., priority 2012, dated 2019)
